Here are results for one substance from paper PMC3032781, “DNA Polymerase β as a Novel Target for Chemotherapeutic Intervention of Colorectal Cancer” (PLoS ONE, 2011).

The test deals with T1, Pol-β (Homo sapiens, UniProt P06746).
T1 construct: gene POLB; purified protein
Description: strand-displacement synthesis on […]-labelled 63-mer F-DNA, denaturing gel. The class given is biochemical. Conditions: pH 7.5, 30 mM KCl, 8 mM MgCl2, 37 °C, 30 min; 5 nM Pol-β, 2 nM APE1 (pre-incision), 2.5 nM DNA.

In general, IC50 refers to the concentration that inhibits the measured activity by half. Higher therefore signals weaker potency. In turn, “[5-(4-amino-6-iodo-2-oxo-5,6-dihydropyrimidin-1-yl)-3-hydroxy-oxolan-2-yl] methoxyphosphonic acid [NSC-124854]” came in with an IC50 of 5.3 µM.
